Measurements as given in US8173620B2, “BHQ-caged nucleotide probes photolysable by two-photon excitation” (University of Georgia Research Foundation, Inc., priority 2008, dated 2012).
Where two headings read alike, the source gives them in different places. Marks after values point to notes of the source that are not given here.

Key:
[1] = Fluorescence spectra of quinoline chromophores in KMOPS; type: physicochemical; settings: pH 7.2, excitation 365 nm
Method: The fluorescence spectra of BHQ-OAc, NHQ-OAc, CyHQ-OAc, CHQ-OAc, DMAQ-OAc, DMAQ-Cl-OAc, and TQ-OAc (15 μM in KMOPS, λex=365 nm) are shown in FIG. 18.

[2] = UV absorption of quinoline chromophores in KMOPS buffer; type: physicochemical; settings: pH 7.2
From the text: It has two absorptive bands beyond 300 nm, one at 320 nm and the other at 370 nm. The 370 nm absorption band arises from the phenolate form of the BHQ skeleton, and the 320 nm absorption band is from the phenol form. […] The λmax of BHQ-ATP (159) is 376 nm, and the extinction coefficient at this wavelength is 1300 M^−1cm^−1. […]

[3] = Two-photon uncaging action cross-section (740 nm, Tsien's method, fluorescein reference); type: physicochemical; settings: for δu (two-photon uncaging action cross-section): KMOPS, pH 7.2, measured at 740 nm; for λa (calculated 2-photon absorbance cross-section): calculated from du = da × Qu
Method: BHQ-ATP (159) (100 μM in KMOPS, pH=7.2) was photolyzed with a Chameleon Ultra II laser at 740 nm in 25-μL aliquots. The irradiation time intervals of the pulsed laser were 0, 5, 10, 20, and 40 min. Three samples of each time interval were collected and analyzed by HPLC using the same method as in the one-photon photolysis. Using Tsien's method of determining two-photon uncaging action cross-section with a fluorescence reference solution, the two-photon uncaging action cross-section of BHQ-ATP (159) was measured to be 0.17 GM. The ATP yield was about 40%.
Measurements were carried out in microcuvettes (10×1×1 mm illuminated dimensions) with an effective filling volume of 20 μL (26.10F-Q-10, Starna, Atascadero, Calif.). The IR laser used was from a fs-pulsed and mode-locked Ti:sapphire laser (Mira 900 pumped by a Verdi, Coherent, Santa Clara, Calif. or a Chameleon Ultra II) focused on the center of the cuvette chamber with a 25-mm focal length lens optimized for IR lasers (06LXP003/076, Melles-Griot, Irvine, Calif.). The pulse width of the laser was 144 fs for Mira 900. The laser beam was attenuated by passing the beam through an electro-optical modulator or a ½-waveplate and polarizing beamsplitter cube so that the average power exiting the apparatus was 300-350 mW.
Successive aliquots (25 μL) of each caged compound in KMOPS were placed into the cuvette and irradiated for 0, 5, 10, 20, and 40 min. Each aliquot was analyzed by HPLC to determine the concentration of the remaining caged compound as described for determining the uncaging quantum efficiency for one photon photolysis. The progress curves were plotted, and fitted to a single exponential decay curve. The formation of ATP was monitored, plotted, and fitted to a single exponential rise to max curve. For compounds 1c, 2a, 2b, and 3 (τdark<50 h), a correction was made for background dark hydrolysis that occurred while the irradiated samples were waiting for HPLC analysis. The fraction of the decay from hydrolysis in the dark was calculated using the measured dark hydrolysis rate and the waiting time from the end of the experiment until the HPLC injection. This value was subtracted from the total decay (hydrolysis+photolysis) measured by HPLC.
The two-photon uncaging cross-section (δu) was determined using Tsien's method, (as described by Furuta et al., (1999) Proc. Natl. Acad. Sci. U.S.A. 96: 1193-1200 (incorporated herein by reference in its entirety), referencing to fluorescein, a compound with a known fluorescence quantum yield (Qf=0.9) and absorbance cross-section (δa=30 GM at 740 nm), using the following equation: […]
Np is the number of molecules photolyzed per unit time (molecules/s, determined by HPLC analysis of the reaction); φ is the collection efficiency of the detector (SED033 on an IL-1700, International Light, Newburyport, Mass.) used to measure the fluorescence of fluorescein emitted at a right angle to the beam and passed though a 535/45 nm bandpass filter; CF is the concentration of the fluorescein standard (mol/L); <F(t)> is the time averaged fluorescent photon flux (photons/s) of the fluorescein standard collected by the detector; and CS is the initial concentration of the caged compound (mol/L). The light-induced uncaging of —OAc from a variety of caging moieties is illustrated in FIG. 23.

[4] = Dark hydrolysis rate / stability in the dark; type: physicochemical; settings: KMOPS, pH 7.2, dark
Method: Substrates were dissolved in KMOPS and stored in the dark at room temperature. Samples for HPLC analysis were carried out periodically and injected as described for one-photon photolysis. Data were fit to single exponential decay curves from which the time constant, τ, was calculated.

[5] = Quantum efficiency for one-photon photolysis (365 nm, HPLC); type: physicochemical; settings: KMOPS, pH 7.2; for Qu (one-photon uncaging quantum efficiency): measured at 365 nm; for Sensitivity Qu × e: one-photon excitation, 365 nm, in M^-1·cm^-1
Method: The quantum efficiency of BHQ-ATP (159) decay and ATP recovery were determined by photolyzing a KMOPS solution of BHQ-ATP (159) (100 μM) with light from a 365 nm lamp through a set of filters that narrowed the band of light to a tight 30 nm range around 365 nm. Aliquots (20 μL) were taken out from the photolysis cuvette after a time interval of 0, 10, 20, 40, 60, or 90 secs, and HPLC analyses of these samples with a reverse phase C18 column and 85% 25 mM KH2PO4 buffer (pH=6.2)/15% methanol solvent system were carried out. The BHQ-ATP (159) peak (retention time=4.2 min.) and ATP peak (retention time=2.8 min.) were recorded and analyzed.
KMOPS-buffered solutions (3 mL) of the substrates (100 μM) in quartz cuvettes (21-Q-10, Starna, Atascadero, Calif.) were irradiated with 365 nm UV light from a mercury lamp (Spectroline SB-100P; Spectronics, Westbury, N.Y.) with a light filter. The spectral output of the lamp after the glass filters (CSO-52 and CS7-60, Ace Glass, Vineland, N.J.) has a band between 350 nm and 380 nm. The duration of each irradiation period ranged from 5 sec to 60 sec. After each period of irradiation, a 20 μL aliquot of the solution was removed for analysis by HPLC, using an external standard method to determine concentrations.
The analytes were eluted isocratically (flow rate of 1 mL/min) with acetonitrile and water containing 0.1% TFA (Table 1). The only exception is that BHQ-caged ATP was eluted with methanol and 25 mM KH2PO4 buffer (pH=6.2). The progress curves were plotted and fit to a single exponenial decay curve. The uncaging quantum efficiency (Qu) of each chromophore was calculated using Qu=(Iσt90%)^−1, where I is the radiant power in einstein·cm^−2s^−1, σ is the decadic extinction coefficient (10^3×ε, molar extinction coefficient) in cm^−2·mol^−1, and t90% is the irradiation time in s for 90% conversion to product (as described by Adams et al. (J. Am. Chem. Soc. (1988) 110: 3212-3220) incorporated herein by reference in its entirety). The UV intensity of the lamp was measured by potassium ferrioxalate actinometry (as described by Hatchard & Parker (Proc. Roy. Soc. London, Ser. A (1956) 235: 518-536) incorporated herein by reference in its entirety) in the same setup. ATP was monitored for its formation during the process, plotted, and fitted to an exponential rise to max curve.

[6] = literature; cited from earlier work
[7] = literature value; cited from earlier work
renal Na,K-ATPase = target: T1, renal Na,K-ATPase (Homo sapiens, UniProt P05023); settings: incubated with renal Na,K-ATPase, Kaplan et al. 1978; cited from earlier work
T1 construct: host or cells: kidney (renal) enzyme, as reported by Kaplan et al. 1978

[8] = KMOPS, pH 7.2; 740 nm; value taken from Fedoryak & Dore, Org. Lett. 2002; cited from earlier work
[9] = KMOPS, pH 7.2; value taken from Fedoryak & Dore, Org. Lett. 2002; cited from earlier work
[10] = KMOPS, pH 7.2; 365 nm; value taken from Fedoryak & Dore, Org. Lett. 2002; cited from earlier work
[11] = KMOPS, pH 7.2; value taken from Fedoryak & Dore, Org. Lett. 2002; cited from earlier work; remark: listed apart in the source

| SMILES | λem [1] [nm] | ε (extinction coefficient at λmax) [2] [M⁻¹ cm⁻¹] | λmax [2] [nm] | δu (two-photon uncaging action cross-section) [3] [GM] | λa (calculated 2-photon absorbance cross-section) [3] [GM] | τdark (time constant for hydrolysis in the dark) [4] [h] | Qu (one-photon uncaging quantum efficiency) [5] | Sensitivity Qu × e [5] | other results |
| --- | --- | --- | --- | --- | --- | --- | --- | --- | --- |
| CC(=O)OCc1ccc2ccc(N(C)C)cc2n1 [DMAQ-OAc (2a), (7-(Dimethylamino)quinolin-2-yl)methyl acetate] | 496 | 4600 | 368 | 0.13 | 2.8 | 31 | 0.046 | 211 | – |
| CC(=O)OCc1ccc2ccc(O)c([N+](=O)[O-])c2n1 [NHQ-OAc (1a), 7-Hydroxy-8-nitroquinolin-2-yl methyl acetate] | – | 6500 | 350 | 0.00 | – | 278 | 0.00 | 0 | – |
| COc1cc(C(C)OP(=O)(O)OP(=O)(O)OP(=O)(O)OC[C@H]2O[C@@H](n3cnc4c(N)ncnc43)[C@H](O)[C@@H]2O)c([N+](=O)[O-])cc1OC (stereo partly drawn) [DMNPE-ATP] | – | – | – | – | – | – | – | – | λmax [6]: 350 nm |
| CC(=O)OCc1cc(Cl)c2ccc(N(C)C)cc2n1 [DMAQ-Cl—OAc (2b), (4-Chloro-7-(dimethylamino)quinolin-2-yl)methyl acetate] | 493 | 3300 | 386 | 0.47 | 5.2 | 34 | 0.090 | 234 | – |
| COc1cc(OC)cc(C(OP(=O)(O)OP(=O)(O)OP(=O)(O)OCC2OC(n3cnc4c(N)ncnc43)C(O)C2O)C(=O)c2ccccc2)c1 (stereo not drawn) [DMB-ATP, P^3-[1-(3,5-dimethoxyphenyl)-2-phenyl-2-oxo]ethyl ester of ATP] | – | – | – | – | – | – | – | – | ATP release rate [7]: > 10^5 sec^−1 |
| CC(=O)OCc1ccc2ccc(O)c(C#N)c2n1 [CyHQ-OAc (1b), (8-Cyano-7-hydroxyquinolin-2-yl)methyl acetate] | 436 | 7700 | 364 | 0.32 | 1.0 | 500 | 0.31 | 2387 | – |
| CN(C)c1ccc2c(COP(=O)(O)OP(=O)(O)OP(=O)(O)OCC3OC(n4cnc5c(N)ncnc54)C(O)C3O)cc(=O)oc2c1 (stereo not drawn) [DMACM-caged ATP, [7-(dimethylamino)coumarin-4-yl]methyl ATP] | – | – | – | – | – | – | – | – | ATP release rate [7]: 1.6e+09 s⁻¹ |
| CC(OP(=O)(O)OP(=O)(O)OP(=O)(O)OCC1OC(n2cnc3c(N)ncnc32)C(O)C1O)c1ccccc1[N+](=O)[O-] (stereo not drawn) [NPE-ATP, P^3-1-(2-nitrophenyl)ethyl ester of ATP] | – | – | – | – | – | – | – | – | ATP release rate [7]: 118 s⁻¹ |
| Nc1ncnc2c1ncn2C1OC(COP(=O)(O)OP(=O)(O)OP(=O)(O)OCc2ccccc2[N+](=O)[O-])C(O)C1O (stereo not drawn) [NB-ATP, 2-nitrobenzyl ester of ATP] | – | – | – | – | – | – | – | – | substrate or inhibitor of Na,K-ATPase before irradiation (renal Na,K-ATPase): neither a substrate nor inhibitor of this enzyme |
| CC(=O)OCc1ccc2ccc(O)c(Cl)c2n1 [CHQ-OAc (1c), (8-Chloro-7-hydroxyquinolin-2-yl)methyl acetate] | 492 | 2800 | 370 | 0.12 | 1.2 | 49 | 0.10 | 280 | – |
| CC(=O)OCc1ccc2ccc(O)c(Br)c2n1 [BHQ-OAc] | 478 | – | – | – | 2.0 | – | – | 754 | δu (two-photon uncaging action cross-section) [8]: 0.59^g GM; ε [9]: 2600^g M^−1 · cm^−1; λmax [9]: 369^g nm; Qu (one-photon uncaging quantum efficiency) [10]: 0.29^g; τdark (time constant for hydrolysis in the dark) [11]: 71^g h |
